# Reference: patent US20040253665A1, “Novel peptide-producing enzyme, microbe producing the enzyme and method for dipeptide synthesis using them” (AJINOMOTO CO., INC., priority 2002, published 2004)
# Read-outs that look alike come from different tables or passages of the source. Non-standard residues stand in square brackets, D forms with d. Residues, ends and D or L forms follow the SMILES beside them.
# Key:
# [1] = tested on: enzyme (SP-Sepharose HP fraction) derived from Sphingobacterium sp. strain FERM BP-8124; format: biochemical; parameters: key to Produced peptide (mM): +: those peptides for which production was confirmed but which were unable to be quantified due to the absence of a standard; a trace amount; settings: 0.33 units enzyme, pH 9.0, 25° C., 1.5 hours
# Experimental: Substrate specificity was examined for enzyme derived from Sphingobacterium sp. strain FERM BP-8124 (Depositary institution: National Institute for Advanced Industrial Science and Technology, International Patent Organism Depositary, Address of depositary institution: Central. 6, 1-1-1 Higashi, Tsukuba City, Ibaraki Prefecture, Japan, International deposit date: Jul. 22, 2002). 100 μl of 100 mM borate buffer (pH 9.0) containing the various carboxy components at a final concentration of 100 mM and the various amine components at a final concentration of 150 mM shown in Tables 15-1 to 15-4, the SP-Sepharose HP fraction enzyme purified in Example 22 (addition of 0.33 units in the reaction liquid) and 10 mM EDTA were allowed to react at 25° C. for 1.5 hours. […] In addition, hydrochlorides were used for all carboxy components.
# Substrate specificity with respect to oligopeptide production was examined for enzyme derived from Sphingobacterium sp. strain FERM BP-8124 (Depositary institution: National Institute for Advanced Industrial Science and Technology,.International Patent Organism Depositary, Address of depositary institution: Chuo Dai-6, 1-1 Higashi 1-Chome, Tsukuba-shi, Ibaraki-ken, Japan, International deposit date: Jul. 22, 2002). A 100 μl aliquot of 100 mM borate buffer (pH 9.0) containing the various carboxy components at a final concentration of 100 mM and the various amine components at a final concentration of 150 mM shown in Table 16, the SP-Sepharose HP fraction enzyme purified in Example 22 (addition of 0.33 units in the reaction liquid) and 10 mM EDTA were allowed to react for 1.5 hours at 25° C. Furthermore, hydrochloride salts were used for all carboxy components.
# [2] = tested on: peptide-producing enzyme (Mono S fraction) from Empedobacter brevis strain FERM BP-8113; experiment: Enzyme substrate specificity (1)-(10), (13), (14); format: biochemical; settings: pH 9.0, 25° C., 3 hours
# Description: Ester specificity was examined in the case of using L-amino acid ester for the carboxy component. […] The amounts of L-Ala-L-Gln produced in this reaction are shown in Table 4 (HCl represents hydrochloride in Table 4). Peptide production was examined in the case of using L-alanine methyl ester for the carboxy component and using various L-amino acids for the amine component. […] (The “+” mark indicates those peptides for which production was confirmed but which were unable to be quantified due to the absence of a standard, while “tr” indicates a trace amount.) Peptide production was examined in the case of using various types of L-amino acid methyl esters for the carboxy component and using L-glutamine for the amine component. […] Peptide production was examined in the case of using various L-amino acid methyl esters for the carboxy component and various L-amino acids for the amine component. […] (The “tr” indicates a trace amount.) Furthermore, Tween-80 was added to the reaction system to a final concentration of 0.1% in the case of using L-Trp-OMe. (The “+” mark indicates those peptides for which production was confirmed but which were unable to be quantified due to the absence of a standard.) […] (The “tr” indicates a trace amount.) Peptide production was examined using various L-amino acid amides for the carboxy component, and various L-amino acids for the amine component. […] Peptide production was examined in the case of using various L-alanine methyl esters for the carboxy component and C-protected L-amino acids for the amine component. […] Peptide production was examined in the case of using various amino acid methyl esters for the carboxy component and methylamine for the amine component. […] Peptide production was examined in the case of using β-amino acid ester for the carboxy component or β-amino acid for the amine component. […] (The “tr” indicates a trace amount.) Oligopeptide production was examined in the case of using L-amino acid ester for the carboxy component and peptide for the amine component. […] Substrate specificity was additionally assessed using the same enzyme fraction as that used in Example 5. […] (A “+” mark indicates those for which production was confirmed but which were unable to be quantified due to the absence of a standard, while “tr” indicates a trace amount). Substrate specificity with respect to oligopeptide production was assessed using the same enzyme fraction as Example 26. […] (A “+” mark indicates those for which production was confirmed but which were unable to be quantified due to the absence of a standard, while “tr” indicates a trace amount). It should be noted that hydrochlorides were used for all of the carboxy components.
# [3] = Table 15-1, carboxy component 100 mM, amine component 150 mM
# [4] = L or D amino acid methyl ester hydrochloride 100 mM, L or D amino acid 150 mM
# [5] = Table 15-3, carboxy component 100 mM, amine component 150 mM
# [6] = L-amino acid methyl ester hydrochloride 100 mM, L-amino acid 150 mM
# [7] = Table 15-2, carboxy component 100 mM, L-Gln 150 mM
# [8] = L-amino acid methyl ester hydrochloride 100 mM, 150 mM L-glutamine
# [9] = Table 15-4, amides or methylamine as components, 100 mM / 150 mM
# [10] = amino acid methyl ester 100 mM, methylamine 150 mM
# [11] = L-Ala-OMe 100 mM, L-amino acid amide 150 mM as amine component
# [12] = 100 mM L-alanine methyl ester hydrochloride, L-amino acid 150 mM
structure (smiles),measurement,setting,value
C[C@@H](N)C(=O)N[C@H](CO)C(=O)O [D-Ala-D-Ser] (H-[dA]-[dS]-OH),Produced peptide,[1]; [3],5.5 mM
same,Produced peptide,[2]; [4],0.2 mM
C[C@@H](N)C(=O)N[C@@H](CO)C(=O)O [D-Ala-L-Ser] (H-[dA]-Ser-OH),Produced peptide,[1]; [3],24.1 mM
same,Produced peptide,[2]; [4],20.3 mM
NCC(=O)N[C@@H](CCCN=C(N)N)C(=O)O [Gly-L-Arg] (H-Gly-Arg-OH),Produced peptide,[1]; [5],17.9 mM
same,Produced peptide,[2]; [6],25.5 mM
NCC(=O)N[C@@H](CCC(N)=O)C(=O)O [Gly-L-Gln] (H-Gly-Gln-OH),Produced peptide,[1]; [7],61.1 mM
same,Produced peptide,[2]; [8],54.7 mM
NCCCC[C@H](NC(=O)CN)C(=O)O [Gly-L-Lys] (H-Gly-Lys-OH),Produced peptide,[1]; [5],48.2 mM
same,Produced peptide,[2]; [6],9.8 mM
NCC(=O)N[C@@H](Cc1ccccc1)C(=O)O [Gly-L-Phe] (H-Gly-Phe-OH),Produced peptide,[1]; [5],20.0 mM
same,Produced peptide,[2]; [6],44.0 mM
same,Produced peptide,"[2]; oligopeptide production, amount of enzyme 0.1 units",17.3 mM
NCC(=O)N[C@@H](CO)C(=O)O [Gly-L-Ser] (H-Gly-Ser-OH),Produced peptide,[1]; [5],53.8 mM
same,Produced peptide,[2]; [6],44.2 mM
CNC(=O)CN [Gly-methylamine],Produced peptide,[1]; [9],1.0 mM
same,Produced peptide,[2]; [10],1.1 mM
C[C@H](N)C(=O)N[C@H](CO)C(=O)O [L-Ala-D-Ser] (H-Ala-[dS]-OH),Produced peptide,[1]; [3],3.3 mM
same,Produced peptide,[2]; [4],5.4 mM
C[C@H](N)C(=O)NCC(N)=O [L-Ala-Gly-NH2] (H-Ala-Gly-NH2),Produced peptide,[1]; [9],15.1 mM
same,Produced peptide,[2]; [11],7.4 mM
C[C@H](N)C(=O)NCC(=O)O [L-Ala-Gly] (H-Ala-Gly-OH),Produced peptide,[1]; [3],11.1 mM
same,Produced peptide,[2]; [12],13.7 mM
C[C@H](N)C(=O)N[C@@H](C)C(N)=O [L-Ala-L-Ala-NH2] (H-Ala-Ala-NH2),Produced peptide,[1]; [9],9.2 mM
same,Produced peptide,[2]; [11],8.3 mM
C[C@H](N)C(=O)N[C@@H](C)C(=O)O [L-Ala-L-Ala] (H-Ala-Ala-OH),Produced peptide,[1]; [3],13.1 mM
same,Produced peptide,"[1]; Table 16, oligopeptide production, carboxy component 100 mM, amine component 150 mM",25.6 mM
same,Produced peptide,[2]; [12],25.4 mM
same,Produced peptide,"[2]; L-amino acid ester 100 mM, amino acid or peptide amine component 150 mM",28.7 mM
C[C@H](N)C(=O)N[C@@H](CC(N)=O)C(=O)O [L-Ala-L-Asn] (H-Ala-Asn-OH),Produced peptide,[1]; [3],52.3 mM
same,Produced peptide,[2]; [12],65.5 mM
C[C@H](N)C(=O)N[C@@H](CC(=O)O)C(=O)O [L-Ala-L-Asp] (H-Ala-Asp-OH),Produced peptide,[1]; [3],2.3 mM
same,Produced peptide,[2]; [12],2.1 mM
C[C@H](N)C(=O)N[C@@H](CCC(=O)O)C(=O)O [L-Ala-L-Glu] (H-Ala-Glu-OH),Produced peptide,[1]; [3],39.1 mM
same,Produced peptide,[2]; [12],42.9 mM
CC[C@H](C)[C@H](NC(=O)[C@H](C)N)C(=O)O [L-Ala-L-Ile] (H-Ala-Ile-OH),Produced peptide,[1]; [3],24.7 mM
same,Produced peptide,[2]; [12],33.9 mM
C[C@H](N)C(=O)N[C@@H](CCCCN)C(=O)O [L-Ala-L-Lys] (H-Ala-Lys-OH),Produced peptide,[1]; [3],71.2 mM
same,Produced peptide,[2]; [12],71.8 mM
C[C@H](N)C(=O)N[C@@H](Cc1ccccc1)C(N)=O [L-Ala-L-Phe-NH2],Produced peptide,[1]; [9],27.1 mM
same,Produced peptide,[2]; [11],12.2 mM
C[C@H](N)C(=O)N[C@H](C(=O)O)[C@@H](C)O [L-Ala-L-Thr] (H-Ala-Thr-OH),Produced peptide,[1]; [3],47.3 mM
same,Produced peptide,[2]; [12],53.9 mM
C[C@H](N)C(=O)N[C@@H](Cc1c[nH]c2ccccc12)C(=O)O [L-Ala-L-Trp] (H-Ala-Trp-OH),Produced peptide,[1]; [3],46.0 mM
same,Produced peptide,[2]; [12],53.9 mM
C[C@H](N)C(=O)N[C@@H](Cc1ccc(O)cc1)C(=O)O [L-Ala-L-Tyr] (H-Ala-Tyr-OH),Produced peptide,[1]; [3],11.1 mM
same,Produced peptide,[2]; [12],17.6 mM
CC(C)[C@H](NC(=O)[C@H](C)N)C(=O)O [L-Ala-L-Val] (H-Ala-Val-OH),Produced peptide,[1]; [3],10.9 mM
same,Produced peptide,[2]; [12],20.8 mM
CNC(=O)C(C)N [L-Ala-methylamine],Produced peptide,[1]; [9],0.6 mM
same,Produced peptide,[2]; [10],0.3 mM
NC(=O)CC[C@H](NC(=O)[C@@H](N)CCCN=C(N)N)C(=O)O [L-Arg-L-Gln] (H-Arg-Gln-OH),Produced peptide,[1]; [7],17.2 mM
same,Produced peptide,[2]; [8],7.1 mM
CSCC[C@H](NC(=O)[C@@H](N)CCCN=C(N)N)C(=O)O [L-Arg-L-Met] (H-Arg-Met-OH),Produced peptide (mM),[1]; [5],tr
same,Produced peptide,[2]; [6],0.7 mM
NC(N)=NCCC[C@H](N)C(=O)N[C@@H](Cc1ccccc1)C(=O)O [L-Arg-L-Phe],Produced peptide (mM),[1]; [5],tr
same,Produced peptide,[2]; [6],1.9 mM
NC(N)=NCCC[C@H](N)C(=O)N[C@@H](CO)C(=O)O [L-Arg-L-Ser] (H-Arg-Ser-OH),Produced peptide,[1]; [5],2.2 mM
same,Produced peptide,[2]; [6],3.6 mM
NC(=O)CC[C@H](NC(=O)[C@@H](N)CCC(N)=O)C(=O)O [L-Gln-L-Gln] (H-Gln-Gln-OH),Produced peptide,[1]; [7],0.1 mM
same,Produced peptide,[2]; [8],0.3 mM
CC[C@H](C)[C@H](N)C(=O)N[C@@H](CCC(N)=O)C(=O)O [L-Ile-L-Gln] (H-Ile-Gln-OH),Produced peptide,[1]; [7],6.4 mM
same,Produced peptide,[2]; [8],8.4 mM
CC[C@H](C)[C@H](N)C(=O)N[C@@H](Cc1ccccc1)C(=O)O [L-Ile-L-Phe] (H-Ile-Phe-OH),Produced peptide,[1]; [5],1.5 mM
same,Produced peptide,[2]; [6],5.2 mM
CC[C@H](C)[C@H](N)C(=O)N[C@@H](CO)C(=O)O [L-Ile-L-Ser] (H-Ile-Ser-OH),Produced peptide,[1]; [5],17.3 mM
same,Produced peptide,[2]; [6],17.2 mM
CSCC[C@H](N)C(=O)N[C@@H](CCC(N)=O)C(=O)O [L-Met-L-Gln] (H-Met-Gln-OH),Produced peptide,[1]; [7],32.6 mM
same,Produced peptide,[2]; [8],12.0 mM
CSCC[C@H](NC(=O)[C@@H](N)CCSC)C(=O)O [L-Met-L-Met] (H-Met-Met-OH),Produced peptide,[1]; [5],28.4 mM
same,Produced peptide,[2]; [6],25.0 mM
CSCC[C@H](N)C(=O)N[C@@H](CO)C(=O)O [L-Met-L-Ser] (H-Met-Ser-OH),Produced peptide,[1]; [5],25.3 mM
same,Produced peptide,[2]; [6],12.8 mM
NC(=O)CC[C@H](NC(=O)[C@@H](N)Cc1ccccc1)C(=O)O [L-Phe-L-Gln],Produced peptide,[1]; [7],0.8 mM
same,Produced peptide,"[2]; L-amino acid amide hydrochloride 100 mM as carboxy component, L-amino acid 150 mM",0.2 mM
same,Produced peptide,[2]; [8],0.9 mM
NC(=O)CC[C@H](NC(=O)[C@@H]1CCCN1)C(=O)O [L-Pro-L-Gln] (H-Pro-Gln-OH),Produced peptide,[1]; [7],1.8 mM
same,Produced peptide,[2]; [8],2.2 mM
